From patent publication US20240058308A1, “TREATMENT AND PREVENTION OF DRY MACULAR DEGENERATION” (The Regents of the University of Michigan, priority 2021, published 2024)

How the values were obtained:
[1] = test system: primary hfRPE culture; experiment: UAM-induced senescence (β-galactosidase activity); format: cell-based, human
From the text: FIG. 6. FLBZ alleviates UAM-induced senescence and tight-junction disruption. (A) (Top) FLBZ reduces senescence when fed concurrently with oxOS during UAM accumulation. (Bottom) FLBZ is unable to reverse established senescence induced by already accumulated UAM. FLBZ is fed daily together with oxOS for 20 days in a month (top) or after one month of 20 oxOS feedings to induce UAM buildup (bottom). DMSO as vehicle control. Senescence measured by β-galactosidase activity (blue). Scale bar: 50 μm. n=6. […] Left graph n=6, right graph n=12. ns p>0.05, *p<0.05, ***p<0.001.
UAM accumulation and quantification as well as assays on senescence were carried out [Ref. 51; incorporated by reference in its entirety]. UAM granule size was measured with Leica LAS X software using the length of the long axis of the granule ellipse.

[2] = test system: primary hfRPE culture
Protocol: Phagocytosis assays using bovine outer segments was performed using the “pulse-only” method [Ref 43; incorporated by reference in its entirety]. Values at the zero-hour timepoint were used for normalization.

[3] = test system: primary human fetal RPE (hfRPE) culture; experiment: Autophagy flux assay with NH4Cl lysosomal alkalinization; format: cell-based; conditions: inducer 22.5 hours, then 25 mM NH4Cl for final 1.5 hours
Protocol: Cultures were exposed to compounds or vehicle (DMSO) for 24 hours. […] (C) Autophagy flux assays. After application of inducers or vehicle (DMSO) for 22.5 hours, 25 mM of NH4Cl, a lysosomal alkalizing agent, or H2O were added for a final 1.5 hours to inhibit autophagy flux.
Increases in both LC3 lipidation and autophagosome formation could result from downstream blockade of autophagy at the lysosome.

[4] = test system: RPE from mouse eyecups; experiment: Ex vivo mouse eyecup autophagy induction (LC3II/LC3I ratio); conditions: 24 hours
Protocol: FIG. 14. Effect of autophagy positive control Torin on RPE from mouse eyecups (DMSO as control). […] Mouse eyes were enucleated, the anterior segment vitreous, and retina were removed, leaving an eyecup with RPE/choroid exposed. […] RPE/Choroid eyecup was treated with 1 uM Torin1 in our previously established RPE cell culture media for 24 hours. n=4.
FIG. 15. Effect of Flubendazole on RPE from Mouse Eyecups (DMSO as control). Conditions with and without ammonium chloride (NH4Cl) help establish high autophagy flux rates. If true autophagy flux is happening, the LC3II/LC3I ratio should increase further upon addition of NH4Cl, as is the case here. DMSO− and FLBZ−, n=6, FLBZ+ and DMSO+ n=5. Flubendazole tested at 60 uM, lysates collected after 24 hours. Induction did occur in eyecups.
Given the inconsistent results with detecting autophagy induction using intravitreal injection of the positive control, Torin, experiments were conducted to determine whether the lack of responsiveness to intravitreal injections was a drug access issue or whether it was a species or animal vs. culture difference. Additional experiments utilized freshly isolated mouse eyecups with the retina removed to determine whether Torin (and FLBZ) induce autophagy in this context. […] The use of ammonium chloride in these experiments blocks lysosomal degradation.

[5] = test system: ARPE-19; experiment: LC3 colocalization to UAM granules; format: cell-based, human; conditions: ARPE-19 treated with drug
From the text: FIG. 5. Autophagy inducer FLBZ reduces accumulation of lipofuscin-like material. (A) Lipofuscin-like material, which we term undigestible autofluorescent material (UAM), accumulates in RPE after repeated feedings of photo-oxidized outer segments (oxOS). UAM granules (green). DAPI (blue). Phalloidin stain of F-actin outlining cell borders (pink). Scale bar: 10 μm. (B) Effects of FLBZ or Torin on UAM accumulation (left) and elimination (right). FLBZ or Torin is fed together with oxOS daily for 20 days in a month (left, n=5) or fed daily for 20 days in a month after completion of oxOS feedings to stimulate UAM accumulation (right, n=7). Unlike Torin, FLBZ both reduces UAM accumulation and increases UAM elimination. DMSO as vehicle control. U 673 AM normalized to DMSO condition. […] UAM (red). LC3 (green). DAPI (blue). Arrows indicate LC3 puncta surrounding a lipofuscin granule. Scale bar: 2 μm. (D) Effects of FLBZ on UAM granule size. Compared to vehicle (DMSO), FLBZ decreases UAM granule size both during oxOS feedings (left) and after UAM buildup has already occurred (right). n=40. ns p>0.05, *p<0.05, **p<0.01, ***p<0.001.
Human fetal eyes were obtained from Advanced Bioscience Resources (ABR, Alameda, California) and cultured [Ref. 43; incorporated by reference in its entirety]. ARPE-19 cells were cultured at passage 19 [Ref. 51; incorporated by reference in its entirety].

[6] = test system: hfRPE; format: cell-based, human
Protocol: Whole mounted Transwells (in duplicate) are photographed.
To evaluate the safety of D4476 and FLBZ, trans-epithelial electrical resistance (TEER) was measured, a measure of tight-junction integrity, in RPE cultures after prolonged exposure to each compound. As well-formed tight-junctions require myriad cell processes to be optimally coordinated, assessing TEER provides an easily measurable, ongoing, and noninvasive marker for general RPE cell health [Ref. 45; incorporated by reference in its entirety]. […] Lactate dehydrogenase (LDH) release, a combined marker of necrotic and late-stage apoptotic cell death [Refs. 47,48; incorporated by reference in their entireties], was reduced compared to vehicle for all four verified RPE autophagy inducers (FIG. 3b). Exposure of RPE cultures to the oxidant tert-butyl hydroperoxide confirmed the ability of the assay to detect cell death (FIG. 10).

Structure (SMILES): COC(=O)Nc1nc2cc(C(=O)c3ccc(F)cc3)ccc2[nH]1 [FLBZ, Flubendazole]
- Senescence, drug after UAM had accumulated ([1]; drug fed after one month of 20 oxOS feedings): cell senescence was not decreased
- Senescence, drug cofed with oxOS ([1]; fed daily together with oxOS for 20 days in a month, vs vehicle): less senescence
- OS phagocytosis efficiency / OS degradative capacity [2]: no effect on OS degradative capacity
- Autophagy flux: LC3-II/LC3-I ratio after NH4Cl [3]: induces autophagy flux
- Autophagy induction in eyecups (LC3II/LC3I ratio) ([4]; mouse RPE/choroid eyecup, Torin 1-5 uM, FLBZ 12-60 uM): induces autophagy well
- Autophagy flux in eyecups: LC3-II/LC3-I ratio with vs without ammonium chloride ([4]; mouse eyecups, FLBZ 60 uM): higher LC3-II/LC3-I ratio with ammonium chloride than without ammonium chloride
- LC3 colocalization to UAM granules [5]: LC3 colocalization to UAM granules
- RPE pigmentation [6]: preserved pigmentation
